pEC50, pIC50: −log10 of the molar value. Read-outs that look alike come from different tables or passages of the source.

For one series, the system named is THP-1 cells. As to the kind of experiment: LPS-induced TNF alpha release in THP-1 cells. Conditions: Homo sapiens, THP-1, read-out: THP-1 (LPS) TNFα IC50. The class given is cell-based. How it is done:
LPS-Induced TNF Alpha Release in THP-1 Cells: Potency […] Coli; O111:B4, Sigma) for 4 hr and the supernatant collected for determination of TNFα concentration by sandwich ELISA (Duo-set, R&D systems). The inhibition of TNFα production was calculated at each concentration by comparison with vehicle control.

Series [1] has as its system Differentiated U937 cells. Nature of the series: MTT assay (cell viability). In kind it is cell-based, human. Put shortly: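 Differentiated U937 cells pre-incubated with compound 4 h in 5% FCS or 24 h in 10% FCS; MTT read at 550 nm after DMSO solubilisation. Percentage loss of viability relative to 0.5% DMSO vehicle; apparent increases appear as negative percentages.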

The next series deals with BEAS2B cells. As to the kind of experiment: Poly I:C-induced ICAM-1 induction in BEAS2B cells. The class given is cell-based. Conditions: Homo sapiens, BEAS-2B, read-out: BEAS2B (polyIC) ICAM1 IC50. In outline: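 Poly I:C (1 ug/ml) transfected into BEAS2B cells after 2 h compound pre-incubation. Surface ICAM-1 measured by cell-based ELISA 18 h post-transfection (HRP, OD450–655), corrected for cell number by OD595.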

Series [2] has as its system U937 cells. Nature of the series: LPS-induced TNF alpha release in U937 cells. The class given is cell-based. Conditions: Homo sapiens; read-out: DU937 (LPS) TNFα REC50. In outline: (§1)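 U937 cells differentiated with PMA (100 ng/ml) for 48 to 72 hours, pre-treated with compound for 2 hrs, then stimulated with E. coli O111:B4 LPS for 4 hrs. Supernatant TNFα and IL-8 measured by sandwich ELISA; inhibition at each concentration versus vehicle control.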

For another series, the target named is T1, p38 MAPK alpha (MAPK14) (Homo sapiens, UniProt Q16539).
T1 construct: purchased Invitrogen
T1 sequence (Q16539 whole entry): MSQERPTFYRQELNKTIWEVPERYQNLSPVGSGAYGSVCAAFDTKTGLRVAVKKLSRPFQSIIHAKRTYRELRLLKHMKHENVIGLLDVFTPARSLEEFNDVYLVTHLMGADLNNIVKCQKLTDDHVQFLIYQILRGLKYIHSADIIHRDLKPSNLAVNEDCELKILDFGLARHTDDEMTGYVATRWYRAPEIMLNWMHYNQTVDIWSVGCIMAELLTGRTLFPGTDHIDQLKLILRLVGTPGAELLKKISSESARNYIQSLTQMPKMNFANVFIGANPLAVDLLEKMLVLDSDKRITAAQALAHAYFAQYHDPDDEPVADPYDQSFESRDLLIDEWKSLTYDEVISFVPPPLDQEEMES
As to the kind of experiment: Enzyme inhibition assay, p38 MAPK alpha (FRET, Z-LYTE, via MAPKAP-K2). The class given is biochemical. Conditions: read-out: Enzyme p38α IC50.

The subject of series [3] is U937 cells. As to the kind of experiment: LPS-induced IL-8 release in U937 cells. In kind it is cell-based. Conditions: Homo sapiens, read-out: DU937 (LPS) IL-8 IC50. In outline:
as §1

Setting [4] is: Table 2, loss of cell viability at 1 μg/ml.
Setting [5] is: Table 2, loss of cell viability, test conducted at 10 μg/ml.
Setting [6] is: Table 3, first MTT column, loss of cell viability at 1 μg/ml.
[7] abbreviates: Table 3, second MTT column, loss of cell viability at 1 μg/ml.

As a reminder, the pIC50 is −log10 of the IC50, conventionally taken in molar units. Consider `COCC(=O)Nc1cc(Oc2ccc(NC(=O)Nc3cc(C(C)(C)C)nn3-c3ccc(C)cc3)c(C)c2C)ccn1` [Example 26, N-(4-(4-(3-(3-tert-Butyl-1-p-tolyl-1H-pyrazol-5-yl)ureido)-2,3-dimethylphenoxy)pyridin-2-yl)-2-methoxyacetamide], for which the negative logarithm of the IC50 (pIC50) in the series with THP-1 cells (Table 2) is more than 8.00; in the series with BEAS2B cells (Table 2) it was more than 8.00; on p38 MAPK alpha (MAPK14) (Table 2) it was more than 5.30; in the series with U937 cells [3] (Table 2) it was more than 8.00. Also, the “DU937 (cell viability) MTT assay 4 h” value in series [1] (setting [4]) was “− (<=30%)”. In series [1] (setting [4]), the “DU937 (cell viability) MTT assay 24 h” value was “+ (>30%)”. Moreover, the pEC50 in the series on U937 cells [2] is more than 8.00.
As for `Cc1ccc(-n2nc(C(C)(C)C)cc2NC(=O)Nc2ccc(Oc3ccnc(NC(=O)CN4CCOCC4)c3)c3ccccc23)cc1` [Example 11, N-(4-(4-(3-(3-tert-Butyl-1-p-tolyl-1H-pyrazol-5-yl)ureido)naphthalen-1-yloxy)pyridin-2-yl)-2-morpholinoacetamide], the pIC50 is more than 8.00 in the series on THP-1 cells (Table 2), more than 5.30 in the series on BEAS2B cells (Table 2), more than 8.00 at p38 MAPK alpha (MAPK14) (Table 2) and more than 8.00 in the series with U937 cells [3] (Table 2). Also, the “DU937 (cell viability) MTT assay 4 h” value in series [1] (setting [5]) is given as “−^$ (<=30%)”. In addition, the “DU937 (cell viability) MTT assay 24 h” value in series [1] (setting [5]) is “+^$ (>30%)”. Also, the pEC50 in the series on U937 cells [2] is more than 8.00.
With `CCc1cc(NC(=O)Nc2ccc(Oc3ccnc(NC(=O)COC)c3)c3ccccc23)n(-c2ccc(C)cc2)n1` [Example 7, N-(4-(4-(3-(3-Ethyl-1-p-tolyl-1H-pyrazol-5-yl)ureido)naphthalen-1-yloxy)pyridin-2-yl)-2-methoxyacetamide], the pIC50 was more than 8.00 in the series on THP-1 cells (Table 2), more than 5.30 with BEAS2B cells (Table 2), more than 8.00 on p38 MAPK alpha (MAPK14) (Table 2) and more than 8.00 with U937 cells [3] (Table 2). Further, the “DU937 (cell viability) MTT assay 4 h” value in series [1] (setting [4]) is recorded as “− (<=30%)”. Moreover, the “DU937 (cell viability) MTT assay 24 h” value in series [1] (setting [4]) is given as “− (<=30%)”. Besides, the pEC50 with U937 cells [2] was more than 8.00.
`COCC(=O)Nc1nccc(Oc2ccc(NC(=O)Nc3cc(C(C)(C)C)nn3-c3ccc(C)cc3)c3ccccc23)n1` [Example 65, N-(4-(4-(3-(3-tert-Butyl-1-p-tolyl-1H-pyrazol-5-yl)ureido)naphthalen-1-yloxy)pyrimidin-2-yl)-2-methoxyacetamide]: the pIC50 with THP-1 cells (Table 1) is more than 8.00; in the series on BEAS2B cells (Table 1), more than 5.30; on p38 MAPK alpha (MAPK14) (Table 1), more than 5.30; in the series with U937 cells [3] (Table 1), more than 5.30. Besides, the “DU937 (cell viability) MTT assay 4 h” value in series [1] (Table 1, MTT, loss of cell viability at 1 μg/ml) is listed as “− (<=30%)”; in series [1] (Table 1, first MTT column, loss of cell viability at 1 μg/ml), “− (<=30%)”. The pEC50 in the series on U937 cells [2] was more than 8.00.
Take `Cc1ccc(-n2nc(C(C)(C)C)cc2NC(=O)Nc2ccc(Oc3ccnc(NC(=O)N4CCCCC4)c3)c3ccccc23)cc1` [Example 45, N-(4-((4-(3-(3-(tert-Butyl)-1-(p-tolyl)-1H-pyrazol-5-yl)ureido)naphthalen-1-yl)oxy)pyridin-2-yl)piperidine-1-carboxamide]: the pIC50 in the series with THP-1 cells (Table 3), in the series on BEAS2B cells (Table 3), on p38 MAPK alpha (MAPK14) (Table 3) and with U937 cells [3] (Table 3) was more than 8.00 each time. For the same compound, the “DU937 (cell viability) MTT assay 4 h” value in series [1] (setting [6]) and in series [1] (setting [7]) was “− (<=30%)” throughout. The pEC50 in the series on U937 cells [2] is more than 8.00.
Consider `Cc1ccc(-n2nc(C(C)(C)C)cc2NC(=O)Nc2ccc(Oc3ccnc(NC(=O)NCCCn4ccnc4)c3)c3ccccc23)cc1` [Example 52, N-(3-(Imidazol-1-yl)propyl)-N′-4-(4-(3-(3-tert-butyl-1-p-tolyl-1H-pyrazol-5-yl)ureido)naphthalen-1-yloxy)pyridin-2-ylurea], for which the pIC50 was more than 8.00 with THP-1 cells (Table 3), more than 8.00 in the series on BEAS2B cells (Table 3), more than 5.30 at p38 MAPK alpha (MAPK14) (Table 3) and more than 8.00 with U937 cells [3] (Table 3). Also, the “DU937 (cell viability) MTT assay 4 h” value in series [1] (setting [6]) and in series [1] (setting [7]) was “− (<=30%)” each time. Also, in the series on U937 cells [2], the pEC50 was more than 8.00.

The record behind these values is patent publication US8299074B2, “P38 MAP kinase inhibitors” (RespiVert Ltd., priority 2008, dated 2012).
